pIC50: −log10 of the molar value. Converted amounts (≈) assume the structure as drawn. Where two headings read alike, the source gives them in different places.
Tests used:
Klebsiella aerogenes A = experiment: MIC in agar; assay type: cell-based; conditions: read-out: MIC, concentration required to inhibit the growth
Shigella sonnei MB 11967 = experiment: MIC in agar; assay type: cell-based; conditions: MB11967, read-out: MIC, concentration required to inhibit the growth
Staph. aureus Russell = experiment: MIC in agar; assay type: cell-based; conditions: Staphylococcus aureus, read-out: MIC, concentration required to inhibit the growth
Staph. aureus Oxford = experiment: MIC in agar; assay type: cell-based; conditions: Staphylococcus aureus, read-out: concentration required to inhibit the growth
Enterobacter cloacae N1 = experiment: MIC in agar; assay type: cell-based; conditions: read-out: concentration required to inhibit the growth
Serratia marcescens US20 = experiment: MIC in agar; assay type: cell-based
[1] = biological target: β-lactamase, Enterobacter P99 (Enterobacter cloacae, UniProt P05364); experiment: β-lactamase inhibition I50; assay type: biochemical
Sequence of β-lactamase, Enterobacter P99 (P05364 21-381): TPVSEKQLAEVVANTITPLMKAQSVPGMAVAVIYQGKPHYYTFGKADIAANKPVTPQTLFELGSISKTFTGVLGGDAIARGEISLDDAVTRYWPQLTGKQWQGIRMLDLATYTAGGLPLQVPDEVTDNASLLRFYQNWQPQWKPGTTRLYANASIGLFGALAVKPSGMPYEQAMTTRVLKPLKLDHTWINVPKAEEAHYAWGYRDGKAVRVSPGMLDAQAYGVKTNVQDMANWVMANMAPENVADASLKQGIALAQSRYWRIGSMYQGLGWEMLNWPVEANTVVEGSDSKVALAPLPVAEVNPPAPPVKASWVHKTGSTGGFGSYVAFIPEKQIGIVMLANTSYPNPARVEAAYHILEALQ

[2] = biological target: β-lactamase, Pseudomonas aeruginosa A (Pseudomonas aeruginosa, UniProt P24735); experiment: β-lactamase inhibition I50; assay type: biochemical
Sequence of β-lactamase, Pseudomonas aeruginosa A (P24735 27-397): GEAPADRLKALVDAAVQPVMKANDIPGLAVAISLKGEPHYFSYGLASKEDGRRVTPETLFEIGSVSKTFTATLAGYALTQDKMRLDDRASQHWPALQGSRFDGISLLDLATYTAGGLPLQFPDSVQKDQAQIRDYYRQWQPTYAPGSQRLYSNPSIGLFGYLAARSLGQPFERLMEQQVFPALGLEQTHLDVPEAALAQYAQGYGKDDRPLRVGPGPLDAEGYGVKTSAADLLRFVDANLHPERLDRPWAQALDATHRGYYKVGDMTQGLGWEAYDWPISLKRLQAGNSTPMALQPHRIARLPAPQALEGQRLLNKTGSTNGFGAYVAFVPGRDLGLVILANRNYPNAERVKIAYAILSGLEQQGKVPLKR

[3] = biological target: β-lactamase, Escherichia coli JT4 (Escherichia coli, UniProt P62593); experiment: β-lactamase inhibition I50; assay type: biochemical
Sequence of β-lactamase, Escherichia coli JT4 (P62593 24-286 limits assumed): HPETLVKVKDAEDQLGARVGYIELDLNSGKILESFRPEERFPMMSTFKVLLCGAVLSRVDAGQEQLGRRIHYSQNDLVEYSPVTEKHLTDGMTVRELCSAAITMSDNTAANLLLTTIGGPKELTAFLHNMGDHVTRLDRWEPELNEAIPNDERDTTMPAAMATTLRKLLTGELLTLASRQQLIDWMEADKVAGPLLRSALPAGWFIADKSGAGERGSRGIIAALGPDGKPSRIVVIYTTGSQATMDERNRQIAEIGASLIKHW

[4] = biological target: β-lactamase, Staphylococcus aureus Russell (Staphylococcus aureus, UniProt P00807); experiment: β-lactamase inhibition I50; assay type: biochemical
Sequence of β-lactamase, Staphylococcus aureus Russell (P00807 25-281): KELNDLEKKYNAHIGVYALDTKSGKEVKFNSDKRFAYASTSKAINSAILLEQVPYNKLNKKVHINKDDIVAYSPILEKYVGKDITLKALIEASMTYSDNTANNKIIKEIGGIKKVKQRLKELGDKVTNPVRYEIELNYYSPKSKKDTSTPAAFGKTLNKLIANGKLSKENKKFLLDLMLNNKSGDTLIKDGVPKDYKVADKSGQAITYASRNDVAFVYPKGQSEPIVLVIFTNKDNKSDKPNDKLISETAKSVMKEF

Bacillus subtilis A = experiment: MIC in agar; assay type: cell-based; conditions: read-out: MIC, concentration required to inhibit the growth
Staph. aureus 1517 = experiment: MIC in agar; assay type: cell-based; conditions: Staphylococcus aureus, read-out: MIC, concentration required to inhibit the growth
Strep pyogenes CN10 = experiment: MIC in agar; assay type: cell-based; conditions: read-out: concentration required to inhibit the growth
E. coli 0111 = experiment: MIC in agar; assay type: cell-based; conditions: Escherichia coli, read-out: concentration required to inhibit the growth
Proteus mirabilis C977 = experiment: MIC in agar; assay type: cell-based; conditions: read-out: concentration required to inhibit the growth
[5] = test system: Salmonella typhimurium CT10; experiment: MIC in agar; assay type: cell-based; conditions: Salmonella enterica, read-out: concentration required to inhibit the growth
Citrobacter freundii E8 = experiment: MIC in agar; assay type: cell-based; conditions: read-out: MIC, concentration required to inhibit the growth
Proteus morganii I 580 = experiment: MIC in agar; assay type: cell-based; conditions: Morganella morganii, I580, read-out: concentration required to inhibit the growth
Proteus rettgeri WM16 = experiment: MIC in agar; assay type: cell-based; conditions: Providencia rettgeri, read-out: concentration required to inhibit the growth
Proteus vulgaris WO 91 = experiment: MIC in agar; assay type: cell-based; conditions: WO91, read-out: concentration required to inhibit the growth
Klebsiella aerogenes = experiment: MIC in agar; assay type: cell-based; conditions: Klebsiella aerogenes (strain not given), read-out: concentration required to inhibit the growth
Salmonella typhimurium = experiment: MIC in agar; assay type: cell-based; conditions: Salmonella enterica, Salmonella typhimurium (strain not given), read-out: concentration required to inhibit the growth
Strep pneumoniae = experiment: MIC in agar; assay type: cell-based; conditions: read-out: concentration required to inhibit the growth
Strep. pyogenes = experiment: MIC in agar; assay type: cell-based; conditions: Streptococcus pyogenes, Strep. pyogenes (strain not given), read-out: concentration required to inhibit the growth
[6] = biological target: β-lactamase, Proteus mirabilis C889; experiment: β-lactamase inhibition I50; assay type: biochemical
[7] = biological target: β-lactamase, Klebsiella aerogenes E70; experiment: β-lactamase inhibition I50; assay type: biochemical
[8] = biological target: β-lactamase, Pseudomonas dalgleish (Pseudomonas aeruginosa, UniProt P16897); experiment: β-lactamase inhibition I50; assay type: biochemical
Sequence of β-lactamase, Pseudomonas dalgleish (P16897 18-288): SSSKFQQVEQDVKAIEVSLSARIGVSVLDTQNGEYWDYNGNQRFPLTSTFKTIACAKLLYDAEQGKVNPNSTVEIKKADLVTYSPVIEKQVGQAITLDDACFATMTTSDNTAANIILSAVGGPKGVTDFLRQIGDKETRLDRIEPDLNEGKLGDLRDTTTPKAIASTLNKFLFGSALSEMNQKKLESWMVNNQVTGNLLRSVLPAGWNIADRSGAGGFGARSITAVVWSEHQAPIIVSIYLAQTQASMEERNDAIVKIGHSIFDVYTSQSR

Strep faecalis I = experiment: MIC in agar; assay type: cell-based; conditions: read-out: concentration required to inhibit the growth
Pseudomonas aeruginosa A = experiment: MIC in agar; assay type: cell-based; conditions: read-out: concentration required to inhibit the growth
[9] = Serratia marcescens US20, read-out: concentration required to inhibit the growth

Row | Compound | MIC (Klebsiella aerogenes A) [µg/mL] | MIC (Shigella sonnei MB 11967) [µg/mL] | MIC (Staph. aureus Russell) [µg/mL] | MIC (Staph. aureus Oxford) [µg/mL] | MIC (Enterobacter cloacae N1) [µg/mL] | MIC (Bacillus subtilis A) [µg/mL] | MIC (Staph. aureus 1517) [µg/mL] | MIC (E. coli 0111) [µg/mL] | MIC (Proteus mirabilis C977) [µg/mL] | MIC [5] [µg/mL] | MIC (Citrobacter freundii E8) [µg/mL] | other results
1 | CC(C)(O)[C@H]1C(=O)N2C(C(=O)OCc3ccccc3)=CC[C@@H]12 (relative stereo) [Example 4 cis-isomer, Benzyl 6-(2-hydroxy-2-propyl)-7-oxo-1-azabicyclo[3,2,0]hept-2-ene-2-carboxylate] | ≤ 2 | ≤ 2 | ≤ 2 | ≤ 2 | 20 (≈ 66.4 µM) | – | – | – | – | – | – | MIC (Serratia marcescens US20; [9]): 20 µg/mL (≈ 66.4 µM)
2 | O=C(OCc1ccccc1)C1=CC[C@H]2[C@@H](C3(O)CCCCC3)C(=O)N12 (relative stereo) [compound 34, Benzyl 6-(1-hydroxycyclohex-1-yl)-7-oxo-1-azabicyclo[3,2,0]hept-2-ene-2-carboxylate] | – | – | – | – | – | – | – | – | – | – | – | pIC50 [1]: 4.83; pIC50 [2]: 5.39; pIC50 [3]: 4.33; pIC50 [4]: 4.87
3 | COC(=O)/C=C/C[C@H]1C(=O)N2C(C(=O)OC3OC(=O)c4ccccc43)=CC[C@@H]12 (relative stereo) [compound 41, Phthalidyl 6-(3-methoxycarbonyl-2-propen-1-yl)-7-oxo-1-azabicyclo[3,2,0]hept-2-ene-2-carboxylate] | 50 (≈ 130 µM) | 50 (≈ 130 µM) | ≤ 0.8 | ≤ 0.8 | – | 25 (≈ 65.2 µM) | ≤ 0.8 | 50 (≈ 130 µM) | 100 (≈ 261 µM) | 50 (≈ 130 µM) | – | MIC (Strep pyogenes CN10): ≤ 0.8 µg/mL
4 | N#C/C=C/C[C@H]1C(=O)N2C(C(=O)OCc3ccccc3)=CC[C@@H]12 (relative stereo) [compound 56, Benzyl 6-(3-cyano-2-propen-1-yl)-7-oxo-1-azabicyclo[3,2,0]hept-2-ene-2-carboxylat] | 20 (≈ 64.9 µM) | 20 (≈ 64.9 µM) | ≤ 2 | ≤ 2 | 20 (≈ 64.9 µM) | 20 (≈ 64.9 µM) | ≤ 2 | 20 (≈ 64.9 µM) | 20 (≈ 64.9 µM) | 20 (≈ 64.9 µM) | 20 (≈ 64.9 µM) | MIC (Serratia marcescens US20; [9]): 20 µg/mL (≈ 64.9 µM); MIC (Proteus morganii I 580): 20 µg/mL (≈ 64.9 µM); MIC (Proteus rettgeri WM16): 20 µg/mL (≈ 64.9 µM)
5 | N#C/C=C/C[C@H]1C(=O)N2C(C(=O)OC3OC(=O)c4ccccc43)=CC[C@@H]12 (relative stereo) [compound 61, Phthalidyl 6-(3-cyano-2-propen-1-yl)-7-oxo-1-azabicyclo[3,2,0]hept-2-ene-2-carboxylat] | – | 22 (≈ 62.8 µM) | 2.4 (≈ 6.85 µM) | 2.4 (≈ 6.85 µM) | 22 (≈ 62.8 µM) | – | – | 7.3 (≈ 20.8 µM) | 66.6 (≈ 190 µM) | – | 7.3 (≈ 20.8 µM) | MIC (Serratia marcescens US20; [9]): 22 µg/mL (≈ 62.8 µM); MIC (Proteus morganii I 580): 22 µg/mL (≈ 62.8 µM); MIC (Proteus rettgeri WM16): 22 µg/mL (≈ 62.8 µM); MIC (Proteus vulgaris WO 91): 66.6 µg/mL (≈ 190 µM); MIC (Klebsiella aerogenes): 7.3 µg/mL (≈ 20.8 µM); MIC (Salmonella typhimurium): 7 µg/mL (≈ 20 µM)
6 | COC(=O)/C=C/CC1C(=O)N2C(C(=O)OCc3ccc([N+](=O)[O-])cc3)=CCC12 (stereo not shown) [53a, p-Nitrobenzyl 6-(3-methoxycarbonyl-2-propen-1-yl)-7-oxo-1-azabicyclo[3,2,0]hept-2-ene-2-carboxylate] | – | – | 2.46 (≈ 6.37 µM) | – | – | – | – | – | – | – | – | MIC (Strep pneumoniae): 7.4 µg/mL (≈ 19.2 µM); MIC (Strep. pyogenes): 0.8 µg/mL (≈ 2.07 µM)
7 | O=CCC1C(=O)N2C(C(=O)OCc3ccccc3)=CCC12 (stereo not shown) [compound 4, Benzyl 6-(2-oxoethyl)-7-oxo-1-azabicyclo[3,2,0]hept-2-ene-2-carboxylate] | – | – | – | – | – | – | – | – | – | – | – | pIC50 [1]: 5.25; pIC50 [2]: < 3.85; β-lactamase inhibition I50 [6]: 2.1 µg/mL; β-lactamase inhibition I50 [7]: > 40 µg/mL; pIC50 [3]: > 5.38; pIC50 [8]: 5.46; pIC50 [4]: < 4.46
8 | COC(=O)/C=C/CC1C(=O)N2C(C(=O)OCc3ccccc3)=CCC12 (stereo not shown) [compound 5, Benzyl 6-(3-methoxycarbonyl-2-propen-1-yl)-7-oxo-1-azabicyclo[3,2,0]hept-2-ene-2-carboxylate] | 20 (≈ 58.6 µM) | 20 (≈ 58.6 µM) | 2 (≈ 5.86 µM) | – | – | 20 (≈ 58.6 µM) | 2 (≈ 5.86 µM) | – | – | – | 20 (≈ 58.6 µM) | –
9 | COC(=O)/C=C/CC1C(=O)N2C(C(=O)OCC(Cl)(Cl)Cl)=CCC12 (stereo not shown) [compound 8, 2,2,2-Trichloroethyl-6-(3-methoxycarbonyl-2-propen-1-yl)-7-oxo-1-azabicyclo[3,2,0]hept-2-ene-2-carboxylate] | 20 (≈ 52.3 µM) | 20 (≈ 52.3 µM) | ≤ 2 | ≤ 2 | – | 20 (≈ 52.3 µM) | ≤ 2 | – | – | – | 20 (≈ 52.3 µM) | MIC (Strep faecalis I): 20 µg/mL (≈ 52.3 µM); MIC (Strep pneumoniae): 20 µg/mL (≈ 52.3 µM); MIC (Strep pyogenes CN10): 20 µg/mL (≈ 52.3 µM)
10 | O=C(OCc1ccccc1)C1=CC[C@@H]2[C@H](C(O)c3ccccc3)C(=O)N12 (stereo partly shown) [compound 30, Benzyl 6-(1-hydroxy-1-phenylmethyl)-7-oxo-1-azabicyclo[3,2,0]hept-2-ene-2-carboxylate] | – | – | – | – | – | – | – | – | – | – | – | β-lactamase inhibition I50 [6]: 0.27 µg/mL; pIC50 [4]: 6.83
11 | COC(=O)/C=C/CC1C(=O)N2C(C(=O)OCOC(=O)C(C)(C)C)=CCC12 (stereo not shown) [compound 52, Pivaloyloxymethyl 6-(3-methoxycarbonyl-2-propen-1-yl)-7-oxo-1-azabicyclo[3,2,0]hept-2-ene-2-carboxylate] | 20 (≈ 54.7 µM) | 20 (≈ 54.7 µM) | 2 (≈ 5.47 µM) | 2 (≈ 5.47 µM) | – | 20 (≈ 54.7 µM) | 2 (≈ 5.47 µM) | 20 (≈ 54.7 µM) | – | 20 (≈ 54.7 µM) | – | –
12 | O=C(OC1OC(=O)c2ccccc21)C1=CCC2CC(=O)N12 (stereo not shown) [compound 81, Phthalidyl 7-oxo-1-azabicyclo[3,2,0]hept-2-ene-2-carboxylate] | 20 (≈ 70.1 µM) | – | 20 (≈ 70.1 µM) | 20 (≈ 70.1 µM) | 20 (≈ 70.1 µM) | 20 (≈ 70.1 µM) | – | 20 (≈ 70.1 µM) | 20 (≈ 70.1 µM) | 20 (≈ 70.1 µM) | 20 (≈ 70.1 µM) | MIC (Serratia marcescens US20; US20, Serratia marcescens VS20, read-out: concentration required to inhibit the growth): 20 µg/mL (≈ 70.1 µM); MIC (Pseudomonas aeruginosa A): 160 µg/mL (≈ 561 µM)

— patent US4401595A, “4-Allyl azetidinone intermediate for β-lactam antibacterial agents” (Beecham Group Limited, priority 1977, dated 1983)
